# Data: PMC6478823, “A suite of phenotypic assays to ensure pipeline diversity when prioritizing drug-like Cryptosporidium growth inhibitors” (Nature Communications, 2019)
# Tests used:
# Cryptosporidium [1] = test system: Cryptosporidium; set-up: method as in earlier work; details: ref Castellanos-Gonzalez, et al. 2013. JID. and Love, et al. 2017. PLoS NTD.; cited from earlier work
# Cryptosporidium [2] = test system: Cryptosporidium; set-up: method as in Lee, et al. 2018. AAC; details: ref Lee, et al. 2018. AAC; cited from earlier work
# C. parvum [3] = assay: Time course infection experiment (PV numbers versus time)
# Description: For quantification of parasitophorous vacuoles over time, HCT-8 cells were grown to greater than 90% confluence in 384-well plates and infected with 11,000 oocysts after triggering excystation.
# C. parvum [4] = assay: NOD SCID gamma (NSG) mouse model of chronic cryptosporidiosis; type: in vivo; details: oral gavage, 4-day treatment course
# Description: It is feasible that Cryptosporidium is most susceptible to drug treatments that show the greatest activity in only one of the mode of action assays described above, which would complicate use of these assays for maintaining a diverse anticryptosporidial pipeline. Therefore, to further test the strategy of ensuring a mechanistically diverse pipeline of anticryptosporidials, it was critical to know that compounds belonging to different phenotypic effect clusters (as in Fig. 7) could work in vivo. For this, thirty-one of the thirty-nine compounds were tested in a mouse model of cryptosporidiosis. There is considerable variability in the in vivo efficacy of anticryptosporidials tested in different mouse models[15],[34]–[39], and it remains unknown which animal models will best predict drug efficacy in humans. […] The piperazine-based compound MMV665917, however, is efficacious in both the acute IFN-γ KO and chronic NSG mouse models. […] Given that the goal of this study was to determine if compounds belonging to different phenotypic clusters might be active in vivo, we assessed in vivo efficacy using the stringent NSG mouse model.
# The NOD SCID gamma mouse model for treatment of established cryptosporidiosis was reported previously. […] Oocyst shedding in feces was monitored by qPCR for 18s rRNA gene with the primers Cp18s forward and Cp18s reverse. […]
# cryptosporidiosis = test system: cryptosporidiosis; set-up: method as in PMID 19954529; details: versus approximately one-quarter of untreated children; cited from earlier work
structure (smiles),measurement,setting,value
CCOc1ccc2cc(-c3nn(CC4CCN(C)CC4)c4ncnc(N)c34)ccc2c1 [BKI-1294],anticryptosporidial activity in SCID beige mice,Cryptosporidium [1],previously demonstrated anticryptosporidial activity
CCOc1ccc2cc(-c3nn(CC4CCN(C)CC4)c4ncnc(N)c34)ccc2n1 [BKI-1369],anticryptosporidial efficacy in gnotobiotic piglet model,Cryptosporidium [2],previously demonstrated anticryptosporidial efficacy
Cc1cccc(-n2ncc3c(O)nc(-n4nc(C)cc4NC(=O)c4cc5ccccc5o4)nc32)c1 [C-1],"Parasites Detected, Average","C. parvum [3]; C1 at 2*EC90, 6 h post-infection",1992
same,"Parasites Detected, Average","C. parvum [3]; C1 at 2*EC90, 9.5 h post-infection",2503
same,"Parasites Detected, Average","C. parvum [3]; C1 at 2*EC90, 12 h post-infection",1773
same,"Parasites Detected, Average","C. parvum [3]; C1 at 2*EC90, 13.5 h post-infection",1847
same,"Parasites Detected, Average","C. parvum [3]; C1 at 2*EC90, 15 h post-infection",879
same,"Parasites Detected, Average","C. parvum [3]; C1 at 2*EC90, 18 h post-infection",1045
same,"Parasites Detected, Average","C. parvum [3]; C1 at 2*EC90, 19.5 h post-infection",1400
same,"Parasites Detected, Average","C. parvum [3]; C1 at 2*EC90, 22.5 h post-infection",945
same,"Parasites Detected, Average","C. parvum [3]; C1 at EC90, 6 h post-infection",2336
same,"Parasites Detected, Average","C. parvum [3]; C1 at EC90, 9.5 h post-infection",2363
same,"Parasites Detected, Average","C. parvum [3]; C1 at EC90, 12 h post-infection",2052
same,"Parasites Detected, Average","C. parvum [3]; C1 at EC90, 13.5 h post-infection",2149
same,"Parasites Detected, Average","C. parvum [3]; C1 at EC90, 15 h post-infection",1056
same,"Parasites Detected, Average","C. parvum [3]; C1 at EC90, 18 h post-infection",1258
same,"Parasites Detected, Average","C. parvum [3]; C1 at EC90, 19.5 h post-infection",2054
same,"Parasites Detected, Average","C. parvum [3]; C1 at EC90, 22.5 h post-infection",2003
CC(=O)Oc1ccccc1C(=O)Nc1ncc([N+](=O)[O-])s1 [Nitazoxanide],efficacy in the NSG mouse model (reduction in fecal oocyst shedding),C. parvum [4],no effect
same,improvement after 1 week of treatment in young children,cryptosporidiosis,just over half of children studied
